Test results reported in EP0345931A1 (SCHERING CORPORATION, priority 1988, dated 1989).
Read-outs that look alike come from different tables or passages of the source.

Assays:
[1] = test system: PAF-induced bronchospasm; assay: PAF-induced bronchospasm in guinea pigs; assay type: in vivo; conditions: Cavia porcellus
[2] = test system: PAF-induced lethality; assay: PAF-induced lethality in mice; assay type: in vivo, Swiss-Webster female CFW mice; conditions: for ED50: Mus musculus, read-out: ED₅₀; for % Lethality: death recorded 1 hour after challenge; for effect on PAF-induced mortality: result in words
Protocol: Swiss-Webster female CFW mice (from Charles River), 5-10 per group, were injected through the tail vein with PAF in 0.5 ml of saline containing bovine serum albumin, and death was recorded.

[3] = test system: ovalbumin-induced lethality (anaphylactic death); assay: Anaphylactic death in ovalbumin-sensitized mice; assay type: in vivo, Swiss-Weber female CFW mice; conditions: for protecting sensitized animals from death: i.p. at doses as high as 50 mg/kg (A) and 20 mg/kg (B); for protecting sensitized animals from death / protection of sensitized animals from death / protection against allergic death (anaphylactic shock) / ovalbumin-induced lethality: result in words; for protection of sensitized animals from death: antihistamines given individually; for protection against allergic death (anaphylactic shock) / ovalbumin-induced lethality: ovalbumin sensitized mice
Protocol: Swiss-Weber female CFW mice (20-30 g) from Charles River were acclimatized for 7-14 days. Animals were sensitized by injecting intraperitoneally 0.5 ml of saline containing 1.6 mg of ovalbumin adsorbed to 100 mg of Al(OH)₃ gel. Ten to 15 days after sensitization, the animals, at least six per group, were injected intraveneously through the tail vein with 1.6 mg of ovalbumin in 0.5 ml of saline. One hundred percent of the sensitized animals died within 10-20 minutes. Injection of ovalbumin into normal mice caused no lethality. […] The compositions (given in dosages listed in the left-hand column of Table II below) were administered intraperitoneally either individually or in indicated combinations 30 minutes before challenge with albumin to sensitized mice. Death was recorded 1 hour after the challenge.

[4] = test system: PAF-acether; conditions: BN 52021 2 mg/kg p.o. alone (non-active dose); cited from earlier work
[5] = compound 5 mg/kg i.p. 30 minutes before i.v. PAF (200 µg/kg)
[6] = compound 10 mg/kg i.p. 30 minutes before i.v. PAF (200 µg/kg)

SMILES	ED50 ([1]; iv, read-out: ED₅₀'s (i.v.)) [mg/kg]	ED50 [2] [mg/kg]	% Lethality [2, 5] [%]	% Lethality [2, 6] [%]	protecting sensitized animals from death [3]	effect on PAF-induced mortality [2]	protection of sensitized animals from death [3]	protection against allergic death (anaphylactic shock) / ovalbumin-induced lethality [3]	also measured
COc1cc([C@H]2CC[C@H](c3cc(OC)c(OC)c(OC)c3)O2)cc(OC)c1OC (relative stereo) [A, trans-2,5-bis(3,4,5-trimethoxyphenyl)tetrahydrofuran]	0.4	20	84	72	totally ineffective				% Lethality ([2]; compound 25 mg/kg i.p. 30 minutes before i.v. PAF (200 µg/kg)): 25%; % Lethality ([2]; compound 50 mg/kg i.p. 30 minutes before i.v. PAF (200 µg/kg)): 16%; % Survival ([3]; A 50 mg/kg i.p. 30 minutes before ovalbumin challenge, death recorded 1 hour after, pooled data from five experiments): 0%
Cc1nnc2n1-c1sc(CCC(=O)N3CCOCC3)cc1C(c1ccccc1Cl)=NC2 [B, 4-(2-chlorophenyl)-9-methyl-6H-thieno[3,2-f][1,2,4]triazolo[4,3-a][1,4]diazepine-2-propionic acid morpholide]		1.5	16	0	totally ineffective				ED50 ([1]; po, PAF-induced bronchospasm, read-out: ED₅₀ (p.o.)): 0.1 mg/kg; % Lethality ([2]; compound 1 mg/kg i.p. 30 minutes before i.v. PAF (200 µg/kg)): 84%; % Lethality ([2]; compound 2 mg/kg i.p. 30 minutes before i.v. PAF (200 µg/kg)): 20%; % Survival ([3]; B 5 mg/kg i.p. 30 minutes before ovalbumin challenge, death recorded 1 hour after, pooled data from five experiments): 0%
C[C@@H]1C(=O)O[C@H]2[C@@H](O)[C@@]34[C@H]5C[C@@H](C(C)(C)C)[C@]36[C@@H](OC(=O)[C@@H]6O)O[C@@]4(C(=O)O5)[C@@]12O [BN 52021, ginkgolide B]									change of bronchospasm [4]: -10%
CN1CCC(=C2c3ccccc3CC(=O)c3sccc32)CC1 [D, ketotifen]						Neither chlorpheniramine, clemastine nor ketotifen affected PAF-induced mortality	significant protection	only partial protection	% Lethality ([2]; compound 1.4 mg/kg i.p. 30 minutes before i.v. PAF (200 µg/kg)): 100%; % Survival ([3]; D 0.1 mg/kg i.p. 30 minutes before ovalbumin challenge, pooled data): 40%
CN1CCC[C@@H]1CCO[C@](C)(c1ccccc1)c1ccc(Cl)cc1 [E, clemastine]						Neither chlorpheniramine, clemastine nor ketotifen affected PAF-induced mortality	significant protection	only partial protection	% Survival ([3]; E 0.2 mg/kg i.p. 30 minutes before ovalbumin challenge, pooled data): 45%
Cc1nnc2n1-c1ccc(Cl)cc1C(c1ccccc1)=NC2 [alprazolam, 8-chloro-1-methyl-6-phenyl-4H-3-triazolo[4,3-a][1,2]-benzodiazepine]	3								
